One test concerns RNAP. The arrangement: method as in PMID 791108. The conditions noted are these: Stl analog lacking the acetamide group; cited from earlier work.
For the next test, the system named is RNAP β′D792G. Set-up: method as in PMID 7592585. The conditions noted are these: cited from earlier work.
Test [1] has as its target T1, Thermus aquaticus RNAP β′M932A mutant (Thermus aquaticus, UniProt Q9KWU6+Q9KWU7, M1238A).
T1 construct: made in house
Nature of the test: GTP incorporation in elongation complex, M932A mutant RNAP. The class given is biochemical. On the procedure:
(§1) Recombinant wild-type (WT) and mutant Thermus aquaticus core RNAPs were constructed and purified as described previously ([25]).
(§2) Elongation complexes (ECs) were assembled with WT and mutant (H936A/R933A and M932A [E. coli numbering]) RNAPs as described previously ([18]) and placed in transcription buffer containing 40 mM KCl and 20 mM Tris (pH 7.9). Prior to complex assembly, RNA was ^32P labeled at the 5′ end by using [γ-^32P]ATP (PerkinElmer). All reactions were carried out at 40°C. Stl (Sigma) with or without 10 mM MgCl2 was added before the reactions for 10 min at 40°C. Elongation reactions were initiated by addition of 1 mM GTP or 1 mM GTP with 10 mM MgCl2; endonucleolytic cleavage reactions were initiated by the addition of 10 mM MgCl2. Reactions were stopped by the addition of formamide-containing buffer, and products were analyzed as described previously ([18]). Fast kinetics experiments were performed as described previously ([18]). The kinetics data that were described well by a single exponent were fitted into a single-exponent equation using the nonlinear regression procedure in SigmaPlot software. Plots were normalized to the predicted maximum, which was taken as 100. The rates were then fitted in a hyperbolic equation to determine the Ki[Stl]. […]

Test [2] addresses T2, Thermus aquaticus RNAP β′H936A/R933A mutant (Thermus aquaticus, UniProt Q9KWU6+Q9KWU7, H1242A/R1239A).
T2 construct: made in house
Nature of the test: GTP incorporation in elongation complex, H936A/R933A mutant RNAP. Format: biochemical. The protocol: as §1, §2

Test [3] addresses T3, WT Thermus aquaticus core RNAP (Thermus aquaticus, UniProt Q9KWU6+Q9KWU7).
T3 construct: made in house
Nature of the test: Intrinsic (endonucleolytic) cleavage / phosphodiester bond hydrolysis in elongation complex EC2, WT RNAP. Format: biochemical. The protocol:
as §1, §2

For test [4], the target named is T3, WT Thermus aquaticus core RNAP. Nature of the test: GTP (NMP) incorporation in assembled elongation complex EC1, WT RNAP. The note with it: for pKi: 1 mM GTP incorporation, 40°C. Format: biochemical. On the procedure:
as §1
Elongation complexes (ECs) were assembled with WT and mutant (H936A/R933A and M932A [E. coli numbering]) RNAPs as described previously ([18]) and placed in transcription buffer containing 40 mM KCl and 20 mM Tris (pH 7.9). Prior to complex assembly, RNA was ^32P labeled at the 5′ end by using [γ-^32P]ATP (PerkinElmer). All reactions were carried out at 40°C. Stl (Sigma) with or without 10 mM MgCl2 was added before the reactions for 10 min at 40°C. Elongation reactions were initiated by addition of 1 mM GTP or 1 mM GTP with 10 mM MgCl2; endonucleolytic cleavage reactions were initiated by the addition of 10 mM MgCl2. Reactions were stopped by the addition of formamide-containing buffer, and products were analyzed as described previously ([18]). Fast kinetics experiments were performed as described previously ([18]). The kinetics data that were described well by a single exponent were fitted into a single-exponent equation using the nonlinear regression procedure in SigmaPlot software. Plots were normalized to the predicted maximum, which was taken as 100. The rates were then fitted in a hyperbolic equation to determine the Ki[Stl]. When the kinetics was described by a double exponent, the predicted maxima of the fast fractions were used for the fit to determine the Stl concentration that inhibited half of the complexes (equivalent of the Ki).
In order to investigate the details of the effects of Stl on RNAP active center functioning, we used artificially assembled elongation complexes (ECs). These complexes are assembled with Thermus aquaticus RNAP, fully complementary synthetic template and nontemplate DNA oligonucleotides, and an RNA oligonucleotide (Fig. 1C and D). […] We analyzed the kinetics of nucleoside monophosphate (NMP) addition in the presence of different concentrations of Stl in the elongation complex EC1, containing a 13-nucleotide-long RNA (Fig. 1C). […]

Test [5] can be described thus: Mg^2+ binding to Stl, titration followed by UV absorption spectrum. The conditions noted are these: deduced from titration experiment (Fig. 2A), 20 mM HEPES buffer pH 8.0; read-out: Apparent affinity of Stl for Mg^2+. The protocol:
The spectra of Stl were recorded using a UV160U UV-visible (UV-Vis) recording spectrophotometer (Shimadzu Scientific Instruments, Inc.) in a fused silica measuring cell in the presence of the indicated concentrations of the MgCl2 in 20 mM HEPES buffer (pH 8.0).
We attempted to directly visualize if Stl can bind Mg^2+. Stl has a distinct UV absorption spectrum.

A further test concerns E. coli RNAP β′N792D. Set-up: method as in PMID 16167380. The note with it: cited from earlier work.
For the next test, the system named is eukaryotic RNAPs. Set-up: method as in PMID 11124018, PMID 11297923, PMID 11839495. The note with it: cited from earlier work.

pKd, pKi: −log10 of the molar value.

Turning to tirandamycin, the “Inhibition of RNAP relative to Stl” value in the test on RNAP was “significantly weaker inhibitor than Stl”.

`CNC(=O)[C@@H](C)[C@H]1C(=O)/C(=C(O)/C=C/C(C)=C/[C@@H](C)[C@H]2O[C@@]3(C)O[C@H](C=C[C@@]34CO4)[C@@H]2C)C(=O)N1[C@@H]1CC[C@H](O)[C@H](C)O1` [Stl, streptolydigin]: the “Effect of mutation β′D792G on sensitivity to Stl” value in the test with RNAP β′D792G is given as “strong resistance”. The pKi is 6.19 in test [1]; 6.09 in test [2]; 5.74 in test [3]; 4.86 in test [4] (Ki[Stl] (half-inhibitory concentration determined from the proportion of the fast fraction), Stl preincubated −Mg^2+); 6.05 in test [4] (Ki[Stl], Stl preincubated +Mg^2+ (10 mM MgCl2)). The “Half-inhibitory concentration of Stl for NMP incorporation, times lower than that for WT RNAP” value in [1] (β′M932A RNAP vs WT RNAP) and in test [2] (β′H936A/R933A RNAP vs WT RNAP) was 15 to 20 times throughout. Further, the “Concentration of Stl required to inhibit half of the ECs during hydrolysis, times lower than during NTP addition” value in [3] (WT RNAP, hydrolysis vs NTP addition, −Mg^2+ preincubation) is about 8 times. The “Half-inhibitory concentration of Stl when preincubated with Mg^2+, times lower than when Mg^2+ was added together with NTP” value in test [4] (NMP incorporation) is about 15 times. Besides, the pKd in test [5] is about 3.00. The “Effect of β′N792D substitution in E. coli RNAP on sensitivity to Stl” value in the test with E. coli RNAP β′N792D is “significant enhancement of the enzyme sensitivity”. Further, in the test with eukaryotic RNAPs, the “Inhibition of eukaryotic RNAPs” value is recorded as “does not inhibit”.

The values above are taken from PMC3957892, “Antibiotic Streptolydigin Requires Noncatalytic Mg^2+ for Binding to RNA Polymerase” (Antimicrobial Agents and Chemotherapy, 2014).
